Measurements: ChEMBL document CHEMBL1128954, “Discovery of antirhinoviral leads by screening a combinatorial library of ureas prepared using covalent scavengers” (Bioorg Med Chem Lett, 1996)

Columns and labels:
Human rhinovirus sp. [1] = test: Compound was evaluated for cytotoxicity against human rhinovirus-14 (HRV-14) in whole cells as combinatorial sample; type: functional
Human rhinovirus sp. [2] = test: Compound was evaluated for cytotoxicity against human rhinovirus-14 (HRV-14) in whole cells as cresynthesized product using XTT assay.; type: functional
Human rhinovirus sp. [3] = test: Compound was evaluated for the inhibition of human rhinovirus-14 HRV-14 at 1 ug/ml; type: functional
Human rhinovirus sp. [4] = test: Compound was evaluated for antirhinoviral activity against human rhinovirus-14 (HRV-14) in whole cell assay; type: functional, organism-based
Human rhinovirus sp. [5] = test: Compound was evaluated for antirhinoviral activity against human rhinovirus-14 (HRV-14) as combinatorial sample; type: functional, organism-based
Human rhinovirus sp. [6] = test: Compound was evaluated for antirhinoviral activity against human rhinovirus-14 (HRV-14) as resynthesized product using XTT assay.; type: functional, organism-based

| Structure (SMILES) | inhibition at 1 µg/mL (Human rhinovirus sp. [3]) [%] | also measured |
| --- | --- | --- |
| CCCCOC(=O)c1ccc(NC(=O)N2CCN(CC(=O)NC(C)C)CC2)cc1 | 101 | TC50 (Human rhinovirus sp. [1]): >40 µM; TC50 (Human rhinovirus sp. [2]): >40 µM; IC50 (Human rhinovirus sp. [4]): 2400 nM; IC50 (Human rhinovirus sp. [4]; Human rhinovirus sp.): 1800 nM |
| CCCCOC(=O)c1ccc(NC(=O)NCCNC(C)=O)cc1 | 0 | – |
| CCCCOC(=O)c1ccc(NC(=O)N2CCCC(C(N)=O)C2)cc1 (stereo not drawn) | 1 | – |
| CCCCOC(=O)c1ccc(NC(=O)NCCc2ccc(S(N)(=O)=O)cc2)cc1 | 102 | TC50 (Human rhinovirus sp. [1]): 34 µM; TC50 (Human rhinovirus sp. [2]): >40 µM; IC50 (Human rhinovirus sp. [5]): 690 nM; IC50 (Human rhinovirus sp. [6]): 810 nM |
| CCCCOC(=O)c1ccc(NC(=O)N2CCCCC2O)cc1 (stereo not drawn) | 2 | – |
| CCCCOC(=O)c1ccc(NC(=O)N2CCSCC2)cc1 | 1 | – |
| CCCCOC(=O)c1ccc(NC(=O)N2CCC(C(N)=O)CC2)cc1 | 0 | – |
| CCCCOC(=O)c1ccc(NC(=O)NC2CC3CCC2C3)cc1 (stereo not drawn) | 1 | – |
| CCCCOC(=O)c1ccc(NC(=O)N2CCN(c3ccccn3)CC2)cc1 | 0 | – |
| CCCCOC(=O)c1ccc(NC(=O)N2CCCC(C(=O)N(CC)CC)C2)cc1 (stereo not drawn) | 0 | – |
